Reference: ChEMBL document CHEMBL3046842, “Antimicrobial and insect antifeedant activities of some Trogers bases” (2012)
Activity calls are given as the source filed them. Unless noted, no cut-off for these calls is given here.

Columns and labels:
Achaea janata [1] = assay: Antifeedant activity against fourth instar larvae of Achaea janata fed on compound treated castor leaves at 200 ppm after 24 hrs by leaf disc method; type: functional, organism-based
Aspergillus niger = assay: Antifungal activity against Aspergillus niger at 50 ug/ml after 72 hrs by disc diffusion method; type: functional, organism-based
Penicillium = assay: Antifungal activity against Penicillium at 50 ug/ml after 72 hrs by disc diffusion method; type: functional, organism-based
Candida albicans = assay: Antifungal activity against Candida albicans at 250 ug/ml after 72 hrs by disc diffusion method; type: functional; conditions: for zone of inhibition at 250 µg/mL: read-out: IZ
Enterococcus faecalis = assay: Antibacterial activity against Enterococcus faecalis at 250 ug/ml after 24 to 45 hrs by disc diffusion method; type: functional; conditions: for zone of inhibition at 250 µg/mL: read-out: IZ
Proteus vulgaris = assay: Antibacterial activity against Proteus vulgaris at 250 ug/ml after 24 to 45 hrs by disc diffusion method; type: functional; conditions: read-out: IZ
Klebsiella pneumoniae = assay: Antibacterial activity against Klebsiella pneumoniae at 250 ug/ml after 24 to 45 hrs by disc diffusion method; type: functional; conditions: read-out: IZ
Pseudomonas = assay: Antibacterial activity against Pseudomonas at 250 ug/ml after 24 to 45 hrs by disc diffusion method; type: functional; conditions: read-out: IZ
Staphylococcus aureus = assay: Antibacterial activity against Staphylococcus aureus at 250 ug/ml after 24 to 45 hrs by disc diffusion method; type: functional; conditions: read-out: IZ
Escherichia coli = assay: Antibacterial activity against Escherichia coli at 250 ug/ml after 24 to 45 hrs by disc diffusion method; type: functional; conditions: read-out: IZ
Achaea janata [2] = assay: Antifeedant activity against fourth instar larvae of Achaea janata fed on compound treated castor leaves at 150 ppm after 24 hrs by leaf disc method; type: functional, organism-based

For `COc1ccc2c(c1Br)CN1CN2Cc2c1ccc(OC)c2Br`, the Activity (Achaea janata [1]) was “Active”, the Activity (Aspergillus niger) was “Active” and the Activity (Penicillium) was “Active”. The zone of inhibition at 250 µg/mL (Candida albicans) was 13 mm, the zone of inhibition at 250 µg/mL (Enterococcus faecalis) was 13 mm and the zone of inhibition at 250 µg/mL (Proteus vulgaris) was 20 mm. For the same compound, the zone of inhibition at 250 µg/mL (Klebsiella pneumoniae) was 20 mm, the zone of inhibition at 250 µg/mL (Pseudomonas) was 20 mm and the zone of inhibition at 250 µg/mL (Staphylococcus aureus) was 20 mm. The zone of inhibition at 250 µg/mL (Escherichia coli) was 20 mm.

`Cc1cc(I)c2c(c1)CN1CN2Cc2cc(C)cc(I)c21` was tested, and the Activity (Achaea janata [1]) was “Active”, the Activity (Aspergillus niger) was “inactive” and the Activity (Penicillium) was “inactive”. It also gave a zone of inhibition at 250 µg/mL (Candida albicans) of 13 mm, a zone of inhibition at 250 µg/mL (Enterococcus faecalis) of 8 mm and a zone of inhibition at 250 µg/mL (Proteus vulgaris) of 13 mm. For the same compound, the zone of inhibition at 250 µg/mL (Klebsiella pneumoniae) was 13 mm, the zone of inhibition at 250 µg/mL (Pseudomonas) was 8 mm and the zone of inhibition at 250 µg/mL (Staphylococcus aureus) was 13 mm. The zone of inhibition at 250 µg/mL (Escherichia coli) was 13 mm.

In the case of `Fc1cc(F)c2c(c1)CN1CN2Cc2cc(F)cc(F)c21`, the Activity (Achaea janata [2]) is reported as “Active”, the Activity (Achaea janata [1]) is reported as “Active” and the Activity (Aspergillus niger) is reported as “inactive”. For the same compound, the Activity (Penicillium) was “inactive”, the Activity (Candida albicans) was “inactive” and the Activity (Enterococcus faecalis) was “inactive”. For the same compound, the zone of inhibition at 250 µg/mL (Proteus vulgaris) was 8 mm, the zone of inhibition at 250 µg/mL (Klebsiella pneumoniae) was 8 mm and the zone of inhibition at 250 µg/mL (Pseudomonas) was 8 mm. It also gave a zone of inhibition at 250 µg/mL (Staphylococcus aureus) of 8 mm and a zone of inhibition at 250 µg/mL (Escherichia coli) of 13 mm.

With `Fc1cc2c(cc1Cl)N1Cc3cc(F)c(Cl)cc3N(C2)C1` the Activity (Achaea janata [2]) was “Active”, the Activity (Achaea janata [1]) was “Active” and the Activity (Aspergillus niger) was “inactive”. For the same compound, the Activity (Penicillium) was “Active”, the zone of inhibition at 250 µg/mL (Candida albicans) was 13 mm and the Activity (Enterococcus faecalis) was “inactive”. The zone of inhibition at 250 µg/mL (Proteus vulgaris) was 13 mm, the zone of inhibition at 250 µg/mL (Klebsiella pneumoniae) was 13 mm and the zone of inhibition at 250 µg/mL (Pseudomonas) was 13 mm. For the same compound, the zone of inhibition at 250 µg/mL (Staphylococcus aureus) was 13 mm and the zone of inhibition at 250 µg/mL (Escherichia coli) was 13 mm.

In the case of `Cc1ccc2c(c1Cl)CN1CN2Cc2c1ccc(C)c2Cl`, the Activity (Achaea janata [1]) is reported as “Active”, the Activity (Aspergillus niger) is reported as “inactive” and the Activity (Penicillium) is reported as “inactive”. For the same compound, the zone of inhibition at 250 µg/mL (Candida albicans) was 13 mm, the zone of inhibition at 250 µg/mL (Enterococcus faecalis) was 8 mm and the zone of inhibition at 250 µg/mL (Proteus vulgaris) was 13 mm. It also gave a zone of inhibition at 250 µg/mL (Klebsiella pneumoniae) of 13 mm, a zone of inhibition at 250 µg/mL (Pseudomonas) of 13 mm and a zone of inhibition at 250 µg/mL (Staphylococcus aureus) of 13 mm. It also gave a zone of inhibition at 250 µg/mL (Escherichia coli) of 13 mm.

`COc1cc2c(cc1Cl)N1Cc3cc(OC)c(Cl)cc3N(C2)C1` was tested, and the Activity (Achaea janata [1]) was “Active”, the Activity (Aspergillus niger) was “inactive” and the Activity (Penicillium) was “Active”. It also gave a zone of inhibition at 250 µg/mL (Candida albicans) of 20 mm, a zone of inhibition at 250 µg/mL (Enterococcus faecalis) of 8 mm and a zone of inhibition at 250 µg/mL (Proteus vulgaris) of 20 mm. For the same compound, the zone of inhibition at 250 µg/mL (Klebsiella pneumoniae) was 20 mm, the zone of inhibition at 250 µg/mL (Pseudomonas) was 20 mm and the zone of inhibition at 250 µg/mL (Staphylococcus aureus) was 20 mm. The zone of inhibition at 250 µg/mL (Escherichia coli) was 20 mm.

With `FC(F)(F)c1ccc2c(c1)CN1CN2Cc2cc(C(F)(F)F)ccc21` the Activity (Achaea janata [2]) was “Active”, the Activity (Achaea janata [1]) was “Active” and the Activity (Aspergillus niger) was “inactive”. For the same compound, the Activity (Penicillium) was “inactive”, the Activity (Candida albicans) was “inactive” and the Activity (Enterococcus faecalis) was “inactive”. For the same compound, the zone of inhibition at 250 µg/mL (Proteus vulgaris) was 13 mm, the zone of inhibition at 250 µg/mL (Klebsiella pneumoniae) was 13 mm and the zone of inhibition at 250 µg/mL (Pseudomonas) was 13 mm. It also gave a zone of inhibition at 250 µg/mL (Staphylococcus aureus) of 13 mm and a zone of inhibition at 250 µg/mL (Escherichia coli) of 13 mm.
